Measurements from patent publication US20240009223A1, “6-THIO-2'-DEOXYGUANOSINE (6-THIO-DG) RESULTS IN TELOMERASE DEPENDENT TELOMERE DYSFUNCTION AND CELL DEATH IN VARIOUS MODELS OF THERAPY-RESISTANT CANCER CELLS” (The Board of Regents of The University of Texas System, priority 2016, published 2024).
“And” between values parts separate entries of the source, which are not always exact repeats. Equal entries are not always repeated.

Tests used:
[1] = system: panel of 12 cancer cell lines of 9 different histological origins; experiment: Long-term cell growth assay (crystal violet), 12 non-melanoma cancer cell lines; assay type: cell-based; settings: dose of 25 μM; 9-12 days
Procedure: FIGS. 1A-1B show long-term cell growth assay of 12 non-melanoma cancer cell lines (FIG. 1A) and 12 BRAF-mutant melanoma cell lines (FIG. 1B) that were treated with 6-thio-dG (6dG) or BIBR 1532 (BIBR) at indicated doses for 9 to 12 days.
Treatment of a Variety of Cancer Cell Lines with Telomerase-directed 6-thio-dG Impairs Cell Viability. […] To further confirm the inhibitory effect of 6-thio-dG, a panel of 12 cancer cell lines of 9 different histological origins was treated with 6-thio-dG for 9-12 days. As the control for 6-thio-dG, a known telomerase inhibitor, BIBR 1532, was also included. In most cases, these cancer cell lines were sensitive to 6-thio-dG administered at a dose of 2.5 μM and higher (FIG. 1A).

metastatic melanoma = experiment: Immune checkpoint therapy patient's clinical response; assay type: in vivo, human; settings: patient #39, previously progressed on other therapies
Procedure: (§1) Ethics Statement. All clinical data and patient samples were collected following approval by the Massachusetts General Hospital institutional review board and the Hospital of the University of Pennsylvania institutional review board. In all cases informed consent was obtained. All animal studies were conducted in accordance with the Guide for the Care and Use of Laboratory Animals of the NIH. Mice were maintained according to the guidelines of the Wistar Institutional Animal Care and Use Committee (IACUC), and study designs were approved by the Wistar IACUC.
RNA-seq of 31 paired pre-, on- and/or post-treatment tumor biopsies derived from 12 patients who were treated with various immune checkpoint blockade therapies were carried out. […] The ssGSEA identified that “packaging of telomere ends” and “telomere maintenance” were highly enriched in 7 out 12 patients' on- or post-treatment tumor biopsies (FIG. 11). […] Prior to pembrolizumab, this patient progressed on vemurafenib, IL-2, ipilimumab, and dabrafenib plus trametinib. It was observed that “telomere maintenance” and “packaging of telomere ends” were highly enriched in this patient's on-treatment tumor biopsy compared to the paired pre-treatment tumor biopsy (FIG. 9F and Table 8). 00449194) 96

[2] = system: metastatic melanoma (BRAF mutation); experiment: Targeted therapy patients' clinical response; assay type: in vivo, human; settings: one patient per row; vemurafenib 1920 mg daily
Procedure: as §1
In addition to treatment-naïve human melanoma, paired pre-, on- and post-treatment tumor biopsies derived from patients with metastatic melanoma who were treated with targeted therapies or immune checkpoint blockade therapies were analyzed.

PEO1 = experiment: Relative cell viability, PEO1; assay type: cell-based, human; settings: 5 days
Procedure: (§2) Additionally, the efficacy of 6-thio-dG was tested using two human ovarian cancer cell lines, PEO4 and PEO1-CR. PEO4 is a derivative line of BRCA1/2-mutant PEO1 that regains homologous recombination by BRCA reversion mutation. […] Importantly, all three cell lines were sensitive to 6-thio-dG after the 5-day treatment (FIGS. 14H-14J).

PEO4 = experiment: Relative cell viability, PEO4; assay type: cell-based, human; settings: 5 days
Procedure: as §2

PEO1-CR = experiment: Relative cell viability, PEO1-CR; assay type: cell-based, human; settings: 5 days
Procedure: as §2

WO-24-2 = experiment: Relative cell viability, patient-derived culture WO-24-2; assay type: cell-based, human; settings: carboplatin at indicated doses, 5 days
From the text: A short-term primary culture, WO-24-2 from a therapy-resistant human ovarian cancer, was also established. The WO-24-2 tumor was resected from a patient with high grade serous ovarian cancer who underwent an interval debulking surgery after receiving neoadjuvant chemotherapy with platinum/taxane and subsequently progressed on platinum chemotherapy. Immunofluorescence staining of PAX8 and cytokeratin 7 confirmed that these were indeed human ovarian cancer cells (FIG. 14K) (George et al., 2017).

C/C(=C\C(=O)Nc1ccccc1C(=O)O)c1ccc2ccccc2c1 [BIBR 1532, reference compound]
anti-proliferative activity [1]: observed in a subset of 12 cancer cell lines

pembrolizumab: anti-PD-1 drug
best response (metastatic melanoma): progressive disease

CCCS(=O)(=O)Nc1ccc(F)c(C(=O)c2c[nH]c3ncc(-c4ccc(Cl)cc4)cc23)c1F [vemurafenib]
Response (value in parentheses) [2]: −16.5% and −51.2% and −53% and −24.9% and −81.5% and −60.5% and −56% and −27% | Time To Progression [2]: 6 months and 5 months and 2 months and 4.3 months and PD at 9 months and 13.4 months and 8.5 months and 3.5 months and 6.5 months

N.N.O=C([O-])C1(C(=O)[O-])CCC1.[Pt+2] [carboplatin, reference compound]
sensitivity (relative cell viability) (PEO1): sensitive | sensitivity (relative cell viability) (PEO4): intrinsically resistant | sensitivity (relative cell viability) (PEO1-CR): acquired resistance | sensitivity (relative cell viability) (WO-24-2): resistant
